Results as given in PMC12040169 (PLOS Biology, 2025).

assay: in vitro; conditions: human, hela cells, % viability

Structure (SMILES)	viability at 28.5 h, 10 µM [%]
CCOC(=O)N1CCC(NS(=O)(=O)c2cn(C)c(=O)n(C)c2=O)CC1 [CBK305699]	89.1
CCCC/C=C/c1cnc(N2CCOCC2)c2nccn12 [CBK091256]	102
CCC(=O)N1CCC[C@H]1Cn1nc(-c2ccc(F)cc2)ccc1=O [CBK284253]	81.1
Cc1cc2n(n1)[C@@H](C(F)F)C[C@@H](C1CCCN(C(=O)C(C)C)C1)N2 (some centres unmarked) [CBK284722]	96.1
Cc1ccccc1NC(=O)NC(=O)C1CCN(S(C)(=O)=O)CC1 [CBK034862]	87.7
NS(=O)(=O)c1ccc(CCNC(=O)c2ccc(C#Cc3ccccc3)cc2)cc1 [CBK263089]	95.9
COc1ccc(N(CC(=O)Nc2c(F)cccc2F)S(=O)(=O)c2ccccc2)cc1 [CBK266883]	95.2
N#CC(c1ccc(Br)cc1)n1ccnc1 (centres unmarked) [CBK009985]	85.6
Cc1ccc(OCC(=O)N2CCN(C(=O)c3cccs3)CC2)c([N+](=O)[O-])n1 [CBK297152]	94.4
CCN(CC)C(=O)CN(CCc1ccc(OC)c(OC)c1)C(=O)NCc1ccc(Cl)cc1 [CBK158742]	110
CC(NCc1nc(=O)c2sccc2[nH]1)c1ccc2c(c1)OCCO2 (centres unmarked) [CBK295157]	88.4
Cc1cc(C(=O)N2CC[C@H]3NC(=O)c4ccccc4OCCCCC[C@H]3C2)no1 [CBK292005]	91.8
COc1ccc(-c2cc(C(=O)Nc3nc4ccc(S(C)(=O)=O)cc4s3)c3ccccc3n2)cc1 [CBK033551]	95.9
CCC(CN1CCCC1)NC(=O)Cc1ccc(OC)c(C)c1 (centres unmarked) [CBK282752]	92.9
CC(=O)C1=C(O)C(=O)N(CCC(=O)O)C1c1ccccc1 (centres unmarked) [CBK286763]	84.3
CS(=O)(=O)c1ccc(Nc2ncnc(N3CCC(Sc4ccccc4)CC3)c2[N+](=O)[O-])cc1 [CBK113567]	92.8
Cc1nn(C)c(C)c1CC(=O)NC1CCN(c2c(F)cccc2F)C1 (centres unmarked) [CBK306307]	83.2
Cc1noc(C)c1CC(=O)N1CCC2(C/C=C/C[C@H]3COCC[C@@H]3NC(=O)CNC2=O)CC1 [CBK292071]	92.3
CC1CCc2c(sc(NC(=O)c3cccs3)c2C(=O)N(C)C)C1 (centres unmarked) [CBK307100]	90.9
O=S(=O)(NCC1CCCO1)c1ccc2oc3ccc(S(=O)(=O)NCC4CCCO4)cc3c2c1 (centres unmarked) [CBK265914]	96.2
O=C(NCC(O)c1ccc([N+](=O)[O-])cc1)c1cccc(S(=O)(=O)N2CCCC2)c1 (centres unmarked) [CBK268847]	119
Cc1cc(C)cc(NC(=O)c2ccc(CSc3nnc(N)s3)cc2)c1 [CBK266609]	85.5

Structure (SMILES)	viability at 28.5 h, 10 µM [%]
CC(=O)Nc1ccc(S(=O)(=O)N2CC[C@H](c3nc4ccccc4o3)C2)cc1 [CBK289373]	103
Cc1ccc(C(=O)C(OC(=O)COc2ccccc2C)c2ccccc2)cc1C (centres unmarked) [CBK265512]	85.3
C=CCN1C(=O)C2(CC(=O)N(CCCN(C)S(C)(=O)=O)C2=O)c2cc(F)ccc21 (centres unmarked) [CBK075319]	100
O=C1CC2(CCC3C(C(=O)NC4CCCC4)C32)Oc2ccccc21 (centres unmarked) [CBK284922]	97.6
O=C(O)/C=C(/CC(=O)O)C(=O)O [CBK260936]	102
Cn1cc2c(n1)[C@H]1CN(C(=O)c3cc(C(F)(F)F)n(C)n3)C[C@H]1C2 [CBK283399]	88.5
COc1cc(OC)nc(C(NC(=O)C2CCN(C(=O)c3ccccc3)CC2)c2ccccc2)n1 (centres unmarked) [CBK059650]	99.7
CN1[C@@H](CCC(=O)N2CCOCC2)CNC(=O)[C@@H]2[C@H]1CCN2C1CCCCC1 [CBK289032]	88.9
COc1ccc(Cn2c(C)nc3c([N+](=O)[O-])c(C)c(C)cc32)cc1 [CBK115370]	102
CC(C)c1nn(C)c(N(C)C)c1CNCCc1cnn(C)c1 [CBK305135]	108
Cc1cc(N(C)Cc2ccccc2Br)nc(N)n1 [CBK297753]	70.2
COC(=O)c1sccc1NS(=O)(=O)c1cc(F)c(Br)cc1F [CBK004492]	103
COc1ccc(CN2CCN(C(=O)c3cccc(F)c3)CC2)cc1 [CBK304396]	97
NC(=O)CCCN1CC[C@H]2c3c(cccc3C(N)=O)CC[C@H]21 [CBK007883]	93.3
Cc1cc(C)n(-c2ccc3nnc(CCC(=O)Nc4nccs4)n3n2)n1 [CBK307617]	96.8
CC(NC(=O)c1cccc(Oc2ccccc2)c1)c1ccncc1 (centres unmarked) [CBK270327]	91.3
CCn1c2ccccc2c2cc(Nc3cc(-c4cccc5ccccc45)ncn3)ccc21 [CBK090834]	50.6
O=C(CCCOc1ccccc1)Nc1ccc([N+](=O)[O-])cc1 [CBK263690]	97.9
CCn1cnc2c1CCC(CN/C(=N/C(=O)c1ccccc1)NC)C2 (centres unmarked) [CBK010036]	103
Cn1c2ccccc2c2nnc(SCc3ccc4nonc4c3)nc21 [CBK267515]	89.9
Cn1nc2c(c1O)CCCC2 [CBK089897]	102
CNC(=O)C1(Cc2cccc(-c3cccs3)c2)CCN(C(=O)Cc2ccccc2)CC1 [CBK285745]	93.3
